Measurements: PMC5349917, “Octreotide-periplocymarin conjugate prodrug for improving targetability and anti-tumor efficiency: synthesis, in vitro and in vivo evaluation” (Oncotarget, 2016)
Several values for one entry are separate records, joined by “and”; a condition that tells them apart may be missing. Equal entries are not always repeated. Where two headings read alike, the source gives them in different places.

Key:
HepG2 hepatoma cells = test: MTT growth inhibition assay, HepG2 cells; type: cell-based, human
Method: (§1) To test the antitumor activities of the synthesized compounds, we evaluated antiproliferative activities of these compounds against human cancer cell lines (Breast cancer cells, MCF-7; Hepatoma cells, HepG2) and human normal cell line (Liver cells, L-02), using the MTT assay as reported in previous studies. Both cell lines were obtained from the Cell Bank of Academy of Science (Shanghai, China).
(§2) After incubation, 20 μL of MTT (5 mg/mL in pH 7.4 PBS) was added to each well, and the plates further incubated at 37°C for 4 h. The medium was then replaced with 100 μL DMSO. The optical density was measured by Microplate Reader (Thermo Electron Corporation) at 595 nm.
(§3) Statistical significance of differences between treatment groups in the biodistribution and anti-tumor effect were assessed using an unpaired Student’s t-test. A p-value of less than 0.05 was considered significant.

[1] = Tissue distribution in H22 cell tumor bearing mice; type: in vivo, mouse; conditions: for AUC0–t Heart / AUC0–t Kidney / AUC0–t Liver / AUC0–t Lung / AUC0–t Plasma / AUC0–t Spleen / AUC0–t Tumor: level of PPM, 4 mg/kg (PPM or equivalent), H22 tumor-bearing mice, 0-4 h
Method: Male Kunming strain mice (KM, 18–22 g) were purchased from Qinglongshan, Experimental Animal Center (ZhenJiang, China). Animal experiments were conducted under principles of good laboratory animal care, and approved by the Ethical Committee for Laboratory Animals Care and Use of Jiangsu University. Mouse […] (H22) cells were purchased from the Cell Bank of Academy of Science (Shanghai, China).
Approximately 1 × 10^7 H22 cells suspended in PBS (pH 7.4) were inoculated subcutaneously into the right hind leg. When the tumor volume reached 1000 mm^3 (around 7 days), mice were intravenously injected with PPM (at a dose of 4 mg/kg) or its equivalent OCT(Phe)-S-PPM via the tail vein (n = 5). At indicated time periods (0.16, 0.50, 1, 2, 3 and 4 h) after injection, blood samples were collected and mice were then sacrificed by cervical dislocation to obtain the heart, liver, spleen, lung, kidney and tumor tissues. All the samples were then washed with ice-cold saline to remove the excess fluid, weighed and stored at –20°C. The thawed tissue was homogenized in 0.9% sodium chloride solution to obtain 0.2 g/mL tissues homogenate. This was followed by the addition of bufalin (50 μl, 5 μg/ml) to the tissues (0.2 ml) with uniform mixing. Ethyl acetate (1.2 ml) was then added to the resulting mixture and thoroughly mixed for 5 min. The total supernatant or organic layer was separated by centrifugation at 3000 rpm for 10 min and transferred to a clean tube. The supernatant was dried with nitrogen at 40°C on water bath to obtain the residue, which was later reconstituted in a 0.2 mL of mobile phase solution. After centrifugation at 20,000 rpm for 10 min, the supernatant was analyzed by HPLC. The mobile phase consisted of acetonitrile and water (38:62, v/v, pH = 3.0, adjusted by H3PO4). The flow rate was 1.0 mL·min^-1 and the detection wavelength was 220 nm. Other conditions included injection volume (20 μl), column temperature (25°C) and detection sensitivity (0.02 AUFS). The retention time of PPM and Bufalin was about 7.2 and 10.8 min, respectively. The calibration curve was A = 0.9958C-0.0299 (A represented the peak area ratio of PPM and Bufalin, while C was the concentration of PPM) and was linear in the range of 0.05–10 μg/mL with a correlation coefficient of R = 0.9995.

H22 tumor = test: Anti-tumor efficacy in H22 tumor-bearing mice; type: in vivo, mouse; conditions: H22 tumor Kunming mice, 5 times; for final tumor weight: control 0.876 ± 0.154 g
Method: (§4) Treatment was initiated when the tumor diameter reached about 0.5 cm (around 3 days). Mice were randomly assigned to four groups (n = 6) namely the control, PPM, OCT and OCT(Phe)-S-PPM groups. Treatment were administered via tail vein at a dose of 4 mg/kg every other day during the experimental period for 5 times. The control group received corresponding amounts of blank injection (ethanol/Cremophor EL, v/v, 1/1, diluted 20 times with normal saline before the injection). Their weights were measured daily and tumor size was measured (major and minor axis) with a vernier caliper thereafter and at the end of the experiment. Tumor volumes were calculated using the formula: a^2×b×0.52, where a and b refer to the longest and shortest diameter, respectively. Tumor tissues were removed from the sacrificed mice and weighed to calculate the tumor inhibition rate (TIR (%) = (1-Wt/Wc) × 100%, where Wt and Wc are the mean tumor weights of the treated groups and the negative control group, respectively. Moreover, the heart, liver and tumor were rinsed with normal saline, fixed in 10% formalin, and then embedded in paraffin blocks for later slicing and staining with hematoxylin and eosin (H&E). Finally, the sections were observed under a microscope for histopathological evaluations

[2] = Toxicity in H22 tumor-bearing mice (serum AST, ALT, ALP, body weight, heart and liver histopathology); type: in vivo, mouse; conditions: for pathological images of heart sections / pathological images of liver sections: HE staining, after treatment for ten days; for ALT / AST / ALP: serum, mice sacrificed 24 h after the last administration; for ALT: control 26.86 ± 6.44; for AST: control 50.55 ± 8.82; for ALP: control 112.06 ± 14.29
Method: as §4

[3] = test system: MCF-7 breast cancer cells; test: MTT growth inhibition assay, MCF-7 cells; type: cell-based, human
Method: as §1, §2, §3

L-02 cells = test: cells; type: cell-based, human
Method: as §1
(§5) In brief, the cells were seeded into a 96-well plate at a density of 2.5 × 10^4 cells/well and incubated with OCT modified PPMs containing various concentrations (ranging from 0.001 to 50.0 μM) for 72 h. After incubation, 20 μL of MTT (5 mg/mL in pH 7.4 PBS) was added to each well, and the plates further incubated at 37°C for 4 h. The medium was then replaced with 100 μL DMSO. The optical density was measured by Microplate Reader (Thermo Electron Corporation) at 595 nm. The cell inhibition rate (IR) was calculated as follows: IR (%) = 1−A/A1×100%, where A refers to the average absorbance intensity of treated group and A1 refers to average absorbance intensity of untreated control group (the vehicle control group).
as §3, with “significant. 50% inhibiting concentration (IC50) of the sample was calculated with the aid of Curve-Expert software (version 1.3; Daniel G. Hyams, Hixson, TN, USA).” for “significant.”

[4] = cited from earlier work
[5] = test system: MFC murine gastric carcinoma cells; test: In vitro cytotoxicity on MFC cells; type: cell-based, mouse; conditions: 72 h of incubation
Method: as §5
as §3, with “significant. 50% inhibiting concentration (IC50) of the sample was calculated with the aid of Curve-Expert software (version 1.3; Daniel G. Hyams, Hixson, TN, USA).” for “significant.”

[6] = test system: PC3, U937, HCT-8, Bel-7402, BGC823, A549 and A2780 cell lines; parameters: method as in PMID 17366373; conditions: PC3, U937, HCT-8, Bel-7402, BGC823, A549 and A2780 cell lines in vitro; read-out: IC50 values, inhibition of proliferation; cited from earlier work
[7] = MTT, 72 h of incubation, read-out: IC50 MCF-7

Compound	AUC0–t Heart ([1]; i.v.) [µg·h/g]	AUC0–t Kidney ([1]; i.v.) [µg·h/g]	AUC0–t Liver ([1]; i.v.) [µg·h/g]	AUC0–t Lung ([1]; i.v.) [µg·h/g]	AUC0–t Plasma ([1]; i.v.) [µg·h/g]	AUC0–t Spleen ([1]; i.v.) [µg·h/g]	AUC0–t Tumor ([1]; i.v., 4 mg/kg)	final tumor weight (H22 tumor; 4 mg/kg i.v. every other day) [g]	pathological images of heart sections [2]	pathological images of liver sections [2]	ALT [2] [U/L]	AST [2] [U/L]	ALP [2] [U/L]	IC50 [3, 7] [nM]	other results
CO[C@H]1C[C@H](O[C@H]2CC[C@]3(C)[C@H]4CC[C@]5(C)[C@@H](C6=CC(=O)OC6)CC[C@]5(O)[C@@H]4CC[C@]3(O)C2)O[C@H](C)[C@H]1OC(=O)CCC(=O)N[C@H](Cc1ccccc1)C(=O)N[C@H]1CSSC[C@@H](C(=O)N[C@H](CO)[C@@H](C)O)NC(=O)[C@H]([C@@H](C)O)NC(=O)[C@H](CCCCN)NC(=O)[C@@H](Cc2c[nH]c3ccccc23)NC(=O)[C@H](Cc2ccccc2)NC1=O [OCT(Phe)-S-PPM]	1.315 ± 0.239	1.152 ± 0.132	1.441 ± 0.202	0.839 ± 0.083	1.409 ± 0.196	0.632 ± 0.079	1.338 µg·h/g and 1.338 ± 0.195 µg·h/g	0.287 ± 0.069	no evident differences from the control group	no evident differences from the control group	23.25 ±5.76	56.83 ± 7.34	124.90 ± 27.23	–	enhancement of cytotoxicity of PPM when conjugated with Phe-OCT (HepG2 hepatoma cells; HepG2, vs PPM): 1.88 fold; concentration in tumor tissue ([1]; 15 min post injection, i.v.): 0.168 µg/g; maximum concentration in tumor tissue ([1]; i.v., reached at 1 h): 0.618 µg/g; AUC0–t in plasma, fold higher than that of PPM ([1]; i.v., vs PPM): 1.73 fold; AUC0–t in tumor, fold higher than that of PPM ([1]; i.v., vs PPM): 2.17 fold; total AUC0~t of heart, fold lower than that of PPM ([1]; i.v., vs PPM, P < 0.01): 0.77 fold; total AUC0~t of liver, fold lower than that of PPM ([1]; i.v., vs PPM, P < 0.01): 0.73 fold; reduction of tumor volume compared to PPM (average) (H22 tumor; equimolar dose of PPM 4 mg/kg, i.v. every other day): 1.56 fold
C[C@@H](O)[C@@H]1NC(=O)[C@H](CCCCN)NC(=O)[C@@H](Cc2c[nH]c3ccccc23)NC(=O)[C@H](Cc2ccccc2)NC(=O)[C@@H](NC(=O)[C@H](N)Cc2ccccc2)CSSC[C@@H](C(=O)N[C@H](CO)[C@@H](C)O)NC1=O [OCT, Octreotide]	–	–	–	–	–	–	–	0.765 ± 0.126	–	–	34.48 ± 6.28	51.25 ± 5.2	129.48 ± 18.54	–	IC50 ([3]; 72 h): > 50000 nM; IC50 (HepG2 hepatoma cells; 72 h): > 50000 nM; IC50 (L-02 cells; 72 h): > 50000 nM; plasma half-life, times more than endogenous somatostatin [4]: 30 times
CO[C@H]1C[C@H](O[C@H]2CC[C@]3(C)[C@H]4CC[C@]5(C)[C@@H](C6=CC(=O)OC6)CC[C@]5(O)[C@@H]4CC[C@]3(O)C2)O[C@H](C)[C@H]1O [PPM, periplocymarin]	1.692 ± 0.283	1.773 ± 0.393	1.967 ± 0.321	0.457 ± 0.092	0.812 ± 0.143	0.257 ± 0.086	0.614 µg·h/g and 0.614 ± 0.128 µg·h/g	0.423 ± 0.087	irregularly arranged myocardial cells and slightly lymphocyte infiltration in the interstitial tissue of the myocardium	obvious soma shrinking, dissociation of hepatic cord, dilation of hepatic sinusoids and lymphocytosis	62.43 ± 13.52	68.21 ± 8.95	184.23 ± 21.48	35.9	IC50 ([3]; Homo sapiens, MCF7, 72 h, MTT, 72 h of incubation, read-out: IC50 MCF-7): 35.9 nM; IC50 (HepG2 hepatoma cells; Homo sapiens, HepG2, MTT, 72 h of incubation, read-out: IC50 HepG2): 138 nM; IC50 (L-02 cells; Homo sapiens, L02, MTT, 72 h of incubation, read-out: IC50 L-02): 128 nM; IC50 ([5]; Mus musculus): 38.4 nM; Kp at 15 min ([1]; male, Kunming, mouse, heart / blood, iv, 15 min post injection, i.v. 4 mg/kg, read-out: ratio of the PPM concentration in heart and blood): 1.18; Kp at 1 h ([1]; male, Kunming, mouse, heart / blood, iv, 1 h post injection, i.v. 4 mg/kg, read-out: ratio of the PPM concentration in heart and blood): 5.21; concentration at 15 min ([1]; male, Kunming, mouse, tumor, iv, 4 mg/kg, 15 min post injection): 917 ng/g; tumor inhibition rate (H22 tumor; 4 mg/kg i.v. every other day, from tumor weights): 51.71%; average body weight ([2]; during treatment, vs control group, P < 0.01): less than that of the control group; IC50 [6]: 20 to 290 nM
C[C@]12CC[C@H](O)C[C@@]1(O)CC[C@@H]1[C@@H]2CC[C@]2(C)[C@@H](C3=CC(=O)OC3)CC[C@]12O [periplogenin]	–	–	–	–	–	–	–	–	–	–	–	–	–	902	IC50 (HepG2 hepatoma cells; MTT, 72 h of incubation, read-out: IC50 HepG2): 580 nM; IC50 (L-02 cells; MTT, 72 h of incubation, read-out: IC50 L-02): 406 nM; IC50 [5]: 509 nM
Somatostatin [somatostatins]	–	–	–	–	–	–	–	–	–	–	–	–	–	–	half-life in circulation ([4]; in vivo): 1 to 3 min
